{"source": "paper PMC7968666", "about": "“The pharmacokinetics and drug-drug interactions of ivermectin in Aedes aegypti mosquitoes” (PLoS Pathogens, 2021)", "key": {"Anopheles mosquitoes": {"test_system": "Anopheles mosquitoes", "details": "cited from earlier work"}, "[1]": {"test": "Pharmacokinetic and drug-drug interaction studies in blood-fed mosquitoes (concentration-time courses, population PK modelling)", "details": "for Ivermectin concentration in single mosquito: IVM (0.1 µg/ml) in human blood, Batch 4, individual mosquitoes, listed as IVM"}, "Ae. aegypti": {"test_system": "Ae. aegypti", "set-up": "method as in PMID 20540931", "details": "single oral dose of 150 μg/kg; cited from earlier work"}, "Aedes aegypti mosquitoes [2]": {"test_system": "Aedes aegypti mosquitoes", "test": "Drug effect on mosquito fecundity (eggs laid after 96 h)", "assay_type": "in vivo", "experimental": "The mixtures were rotated at room temperature for 30 min to ensure a uniform drug distribution (Rotator Genie, Scientific Industries, Bohemia, USA). […] Twelve hours later, the tap water was also removed to starve the mosquitoes. […] The mosquitoes were then feeding from blood through the netting and the Parafilm membrane. […] The photoperiod of the climate chamber and the insectary were synchronised. […] The engorged mosquitoes were either directly frozen at -20°C or returned to the climate chamber for certain time periods to assess the PK. […] Blood feeding was done as described above. […] In contrast to the PK experiments, the mosquitoes had unlimited access to water because a moistened oviposition substrate was inserted into the paper cup. Fecundity was defined as the total number of eggs laid after 96 h. […] The filter paper served as the oviposition substrate. The cotton wool was soaked with fresh water and covered by a new filter paper after 48, 72, and 96 h post-treatment. After the assay, the eggs were left to mature for 24 h in the insectary. […] R Foundation for Statistical Computing, http://www.R-project.org, Vienna, Austria). Normality was assessed using the Shapiro-Wilk test. For normally distributed data (mortality, fecundity), group differences were assessed with one-way ANOVA testing, and, where applicable, followed up with Tukey's test. Group differences in fertility (not normally distributed) were evaluated with Kruskal-Wallis one-way analysis of variance, and Wilcoxon rank sum testing as post-hoc."}, "Aedes aegypti mosquitoes [3]": {"test_system": "Aedes aegypti mosquitoes", "details": "IVM 0.1, KCZ 5, RIF 10, RTV 10, PBO 10 μg/ml in blood; for Mosquito survival (%): 50 mosquitoes"}, "Aedes aegypti mosquitoes [4]": {"test_system": "Aedes aegypti mosquitoes", "test": "Drug effect on mosquito fertility (percentage of eggs hatched)", "assay_type": "in vivo", "experimental": "The mixtures were rotated at room temperature for 30 min to ensure a uniform drug distribution (Rotator Genie, Scientific Industries, Bohemia, USA). […] Twelve hours later, the tap water was also removed to starve the mosquitoes. […] The mosquitoes were then feeding from blood through the netting and the Parafilm membrane. […] The photoperiod of the climate chamber and the insectary were synchronised. […] The engorged mosquitoes were either directly frozen at -20°C or returned to the climate chamber for certain time periods to assess the PK. […] Blood feeding was done as described above. […] In contrast to the PK experiments, the mosquitoes had unlimited access to water because a moistened oviposition substrate was inserted into the paper cup. […] Any hatched larva was counted and transferred to a rearing tray with a plastic pipette. The fertility was calculated as the percentage of eggs hatched. […] R Foundation for Statistical Computing, http://www.R-project.org, Vienna, Austria). Normality was assessed using the Shapiro-Wilk test. For normally distributed data (mortality, fecundity), group differences were assessed with one-way ANOVA testing, and, where applicable, followed up with Tukey's test. Group differences in fertility (not normally distributed) were evaluated with Kruskal-Wallis one-way analysis of variance, and Wilcoxon rank sum testing as post-hoc."}, "[5]": {"details": "ivermectin 0.1 μg/ml plus ritonavir 10 μg/ml in blood"}, "[6]": {"details": "non-parametric bootstrap analysis (n = 1’000)"}, "[7]": {"details": "4 days, IVM 0.1, KCZ 5, RIF 10, RTV 10, PBO 10 μg/ml in blood, 50 mosquitoes"}, "[8]": {"details": "100 eggs laid 48-96 h post-treatment, IVM 0.1, KCZ 5, RIF 10, RTV 10, PBO 10 μg/ml in blood"}}, "note": "Where “and” joins values, the source holds several entries; their conditions need not be identical. Equal values may be shown once. Entries after “also recorded” stand apart in the source; their conditions may differ. Read-outs that look alike come from different tables or passages of the source."}
{"smiles": "CCC(C)C1OC2(CCC1C)CC1CC(CC=C(C)C(OC3CC(OC)C(OC4CC(OC)C(O)C(C)O4)C(C)O3)C(C)C=CC=C3COC4C(O)C(C)=CC(C(=O)O1)C34O)O2", "note": "(centres unmarked) [ivermectin]", "values": [{"measurement": "Lethal concentration for Anopheles mosquitoes", "setting": "Anopheles mosquitoes", "result": "low nanomolar range"}, {"measurement": "zero-order elimination rate", "setting": "[1]; 0.1 μg/ml ivermectin in blood, pharmacometric modelling", "result": 5.5, "unit": "pg/h"}, {"measurement": "Course / extent of elimination from the mosquitoes", "setting": "[1]; IVM 0.1, KCZ 5, RIF 10, PBO 10 μg/ml in blood, up to 72 h", "result": "after 72 h only traces of ivermectin were still detectable"}, {"measurement": "Type of elimination kinetics in the mosquito", "setting": "[1]; IVM 0.1, KCZ 5, RIF 10, RTV 10, PBO 10 μg/ml in blood", "result": "zero-order elimination; also recorded: zero-order kinetics"}, {"measurement": "Ivermectin concentration in single mosquito", "setting": "[1]; 0 h post feeding", "result": "0.079 ng/mg msq (2×) and 0.077 ng/mg msq (2×) and 0.075 ng/mg msq and 0.084 ng/mg msq (2×) and 0.087 ng/mg msq and 0.089 ng/mg msq (2×) and 0.085 ng/mg msq and 0.088 ng/mg msq and 0.078 ng/mg msq (2×) and 0.083 ng/mg msq (4×) and 0.062 ng/mg msq and 0.074 ng/mg msq"}, {"measurement": "Ivermectin concentration in single mosquito", "setting": "[1]; 6 h post feeding", "result": "0.100 ng/mg msq (2×) and 0.086 ng/mg msq (2×) and 0.098 ng/mg msq and 0.092 ng/mg msq (2×) and 0.079 ng/mg msq and 0.085 ng/mg msq and 0.104 ng/mg msq and 0.082 ng/mg msq and 0.094 ng/mg msq and 0.083 ng/mg msq and 0.103 ng/mg msq (2×) and 0.160 ng/mg msq and 0.148 ng/mg msq and 0.096 ng/mg msq and 0.111 ng/mg msq and 0.113 ng/mg msq"}, {"measurement": "Ivermectin concentration in single mosquito", "setting": "[1]; 12 h post feeding", "result": "0.073 ng/mg msq and 0.065 ng/mg msq and 0.093 ng/mg msq (2×) and 0.095 ng/mg msq (2×) and 0.090 ng/mg msq (3×) and 0.085 ng/mg msq (2×) and 0.063 ng/mg msq and 0.087 ng/mg msq and 0.077 ng/mg msq and 0.104 ng/mg msq and 0.116 ng/mg msq and 0.103 ng/mg msq and 0.086 ng/mg msq and 0.098 ng/mg msq and 0.124 ng/mg msq"}, {"measurement": "Ivermectin concentration in single mosquito", "setting": "[1]; 24 h post feeding", "result": "0.073 ng/mg msq (2×) and 0.070 ng/mg msq (2×) and 0.074 ng/mg msq and 0.068 ng/mg msq and 0.090 ng/mg msq and 0.064 ng/mg msq (3×) and 0.067 ng/mg msq and 0.078 ng/mg msq and 0.055 ng/mg msq and 0.062 ng/mg msq and 0.058 ng/mg msq and 0.072 ng/mg msq and 0.056 ng/mg msq (2×) and 0.084 ng/mg msq and 0.057 ng/mg msq"}, {"measurement": "Ivermectin concentration in single mosquito", "setting": "[1]; 36 h post feeding", "result": "0.068 ng/mg msq (3×) and 0.044 ng/mg msq and 0.052 ng/mg msq and 0.090 ng/mg msq and 0.039 ng/mg msq and 0.038 ng/mg msq and 0.056 ng/mg msq and 0.053 ng/mg msq and 0.071 ng/mg msq and 0.060 ng/mg msq (2×) and 0.050 ng/mg msq and 0.036 ng/mg msq and 0.051 ng/mg msq and 0.062 ng/mg msq and 0.043 ng/mg msq and 0.037 ng/mg msq and 0.073 ng/mg msq"}, {"measurement": "IOV dose (inter-occasion variability), estimate", "setting": "[1]; final population PK model", "result": 0.11}, {"measurement": "Inter-individual variability (ω) of dose, estimate", "setting": "[1]; final population PK model", "result": 0.075}, {"measurement": "Inter-individual variability (ω) of kel, estimate", "setting": "[1]; final population PK model", "result": 0.25}, {"measurement": "kel (zero-order elimination rate), estimate", "setting": "[1]; final population PK model, 0.1 μg/ml ivermectin in blood", "result": 0.0055, "unit": "ng/h"}, {"measurement": "dose (amount absorbed from the blood meal), estimate", "setting": "[1]; final population PK model, 0.1 μg/ml ivermectin in blood, median mosquito weight 3.4 mg", "result": 0.28, "unit": "ng"}, {"measurement": "Amount of ivermectin imbibed per feeding, mean ± SD", "setting": "[1]; human blood spiked with 0.1 μg/ml ivermectin, four batches", "result": "0.36 ± 0.06", "unit": "ng"}, {"measurement": "Effect of ritonavir on the elimination rate of ivermectin", "setting": "[1]; [5]", "result": "not affected"}, {"measurement": "Increase of ivermectin exposure (AUC) compared to ivermectin alone", "setting": "[1]; [5]", "result": 29, "unit": "%"}, {"measurement": "IOV dose, bootstrap median", "setting": "[1]; [6]", "result": 0.11}, {"measurement": "Inter-individual variability (ω) of dose, bootstrap median", "setting": "[1]; [6]", "result": 0.075}, {"measurement": "Inter-individual variability (ω) of kel, bootstrap median", "setting": "[1]; [6]", "result": 0.25}, {"measurement": "Tlag, bootstrap median", "setting": "[1]; [6]", "result": 18.5, "unit": "h"}, {"measurement": "dose, bootstrap median", "setting": "[1]; [6]", "result": 0.28, "unit": "ng"}, {"measurement": "Tlag_add_rit, bootstrap median", "setting": "[1]; non-parametric bootstrap analysis (n = 1’000), ritonavir co-treatment", "result": 11.4, "unit": "h"}, {"measurement": "Host blood concentration relative to LD50 against Ae. aegypti", "setting": "Ae. aegypti", "result": "≤ 10 % of the LD50"}, {"measurement": "Mosquito fecundity, Batch 1, mg eggs (4 days)", "setting": "Aedes aegypti mosquitoes [2]; [7]", "result": 18.22, "unit": "mg eggs"}, {"measurement": "Mosquito fecundity, Batch 2, mg eggs (4 days)", "setting": "Aedes aegypti mosquitoes [2]; [7]", "result": 8.65, "unit": "mg eggs"}, {"measurement": "Mosquito fecundity, Batch 3, mg eggs (4 days)", "setting": "Aedes aegypti mosquitoes [2]; [7]", "result": 16.69, "unit": "mg eggs"}, {"measurement": "Effect on number of mosquito eggs (fecundity) compared to blank blood", "setting": "Aedes aegypti mosquitoes [2]; four days, IVM 0.1, RTV 10, PBO 10 μg/ml in blood", "result": "reduced the number of mosquito eggs"}, {"measurement": "Mosquito survival (%)", "setting": "Aedes aegypti mosquitoes [3]; 0 days post feeding", "result": 100, "unit": "%"}, {"measurement": "Mosquito survival (%)", "setting": "Aedes aegypti mosquitoes [3]; 1 day post feeding", "result": 100, "unit": "%"}, {"measurement": "four-day mosquito mortality", "setting": "Aedes aegypti mosquitoes [3]; four days, 3 batches of 50", "result": 17, "unit": "%"}, {"measurement": "Mosquito fertility, Batch 1, hatching rate", "setting": "Aedes aegypti mosquitoes [4]; [8]", "result": 1, "unit": "%"}, {"measurement": "Mosquito fertility, Batch 2, hatching rate", "setting": "Aedes aegypti mosquitoes [4]; [8]", "result": 0, "unit": "%"}, {"measurement": "Mosquito fertility, Batch 3, hatching rate", "setting": "Aedes aegypti mosquitoes [4]; [8]", "result": 1, "unit": "%"}, {"measurement": "Effect on fertility of mosquito eggs", "setting": "Aedes aegypti mosquitoes [4]; ivermectin 0.1 μg/ml in blood", "result": "sterilised almost all mosquito eggs"}]}
